Experimental data published in US10670605B2, “Cysteine reactive probes and uses thereof” (The Scripps Research Institute, priority 2015, dated 2020).
Blank lines part the entries; values can stand above or below the compound they belong to.

Key:
Experiment in all cases: Competitive isoTOP-ABPP in situ (fragment-treated cells)
Type in all cases: cell-based
[1] = target: cysteines in MDA-MB-231 and Ramos cells (Homo sapiens, UniProt P27708); settings: 200 μM, insitu
[2] = target: cysteines in MDA-MB-231 and Ramos cells (Homo sapiens, UniProt Q96EY5)
[3] = target: T1, cysteines in MDA-MB-231 and Ramos cells (Homo sapiens, UniProt Q9NTX5)
T1 sequence (Q9NTX5 1-307): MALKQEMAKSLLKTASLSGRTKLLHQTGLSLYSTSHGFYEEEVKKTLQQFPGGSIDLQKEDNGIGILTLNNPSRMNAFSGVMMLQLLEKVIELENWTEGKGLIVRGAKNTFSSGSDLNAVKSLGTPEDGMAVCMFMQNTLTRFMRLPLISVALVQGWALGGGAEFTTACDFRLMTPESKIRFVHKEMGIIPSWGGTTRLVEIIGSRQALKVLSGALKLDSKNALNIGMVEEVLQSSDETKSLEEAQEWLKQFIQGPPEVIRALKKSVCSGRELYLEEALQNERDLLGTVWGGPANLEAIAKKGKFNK

[4] = target: cysteines in MDA-MB-231 and Ramos cells (Homo sapiens, UniProt P07858)
[5] = target: cysteines in MDA-MB-231 and Ramos cells (Homo sapiens, UniProt Q5MNZ6)
[6] = target: T2, cysteines in MDA-MB-231 and Ramos cells (Homo sapiens, UniProt O75717)
T2 sequence (O75717 1-1129): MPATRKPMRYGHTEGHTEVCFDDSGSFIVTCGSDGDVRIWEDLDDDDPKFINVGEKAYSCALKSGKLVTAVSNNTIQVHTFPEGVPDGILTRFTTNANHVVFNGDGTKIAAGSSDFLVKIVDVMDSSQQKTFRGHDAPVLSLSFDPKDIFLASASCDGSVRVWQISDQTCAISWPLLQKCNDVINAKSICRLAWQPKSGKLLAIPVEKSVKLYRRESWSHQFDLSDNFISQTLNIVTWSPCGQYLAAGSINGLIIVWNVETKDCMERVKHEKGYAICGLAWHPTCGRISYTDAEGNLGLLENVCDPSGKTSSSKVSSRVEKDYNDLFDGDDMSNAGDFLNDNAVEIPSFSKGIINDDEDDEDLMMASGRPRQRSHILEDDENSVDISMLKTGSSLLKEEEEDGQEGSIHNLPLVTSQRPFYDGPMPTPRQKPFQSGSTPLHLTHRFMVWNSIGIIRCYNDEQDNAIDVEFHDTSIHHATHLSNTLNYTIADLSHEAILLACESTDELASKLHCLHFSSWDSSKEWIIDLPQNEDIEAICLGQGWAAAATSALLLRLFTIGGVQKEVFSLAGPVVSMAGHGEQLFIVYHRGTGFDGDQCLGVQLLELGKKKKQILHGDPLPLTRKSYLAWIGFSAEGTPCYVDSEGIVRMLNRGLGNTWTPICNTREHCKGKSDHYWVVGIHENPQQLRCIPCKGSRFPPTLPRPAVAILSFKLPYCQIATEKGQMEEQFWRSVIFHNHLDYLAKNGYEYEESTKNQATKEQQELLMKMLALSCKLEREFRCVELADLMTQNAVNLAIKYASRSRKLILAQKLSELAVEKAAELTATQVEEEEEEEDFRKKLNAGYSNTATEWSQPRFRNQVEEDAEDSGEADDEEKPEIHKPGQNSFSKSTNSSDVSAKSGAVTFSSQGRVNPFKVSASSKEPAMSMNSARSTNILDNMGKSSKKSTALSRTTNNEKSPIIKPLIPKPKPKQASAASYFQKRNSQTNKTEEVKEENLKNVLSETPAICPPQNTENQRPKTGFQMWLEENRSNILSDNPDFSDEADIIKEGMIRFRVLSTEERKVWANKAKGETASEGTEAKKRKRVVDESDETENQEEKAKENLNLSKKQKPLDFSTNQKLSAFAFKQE

[7] = target: T3, cysteines in MDA-MB-231 and Ramos cells (Homo sapiens, UniProt P09110)
T3 sequence (P09110 27-424): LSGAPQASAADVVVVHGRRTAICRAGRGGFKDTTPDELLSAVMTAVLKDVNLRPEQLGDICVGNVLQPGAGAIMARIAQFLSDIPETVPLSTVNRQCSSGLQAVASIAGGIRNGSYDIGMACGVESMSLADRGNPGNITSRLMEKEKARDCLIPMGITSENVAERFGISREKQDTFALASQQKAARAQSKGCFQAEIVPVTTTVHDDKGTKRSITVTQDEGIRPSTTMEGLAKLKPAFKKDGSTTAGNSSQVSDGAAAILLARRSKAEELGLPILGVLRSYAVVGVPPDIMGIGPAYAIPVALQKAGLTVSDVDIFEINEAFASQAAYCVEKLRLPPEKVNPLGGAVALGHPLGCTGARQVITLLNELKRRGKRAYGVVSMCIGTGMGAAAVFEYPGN

[8] = target: cysteines in MDA-MB-231 and Ramos cells (Homo sapiens, UniProt P14635)
[9] = target: T4, cysteines in MDA-MB-231 and Ramos cells (Homo sapiens, UniProt Q5TFE4); settings: 200 μM, insitu
T4 sequence (Q5TFE4 1-455): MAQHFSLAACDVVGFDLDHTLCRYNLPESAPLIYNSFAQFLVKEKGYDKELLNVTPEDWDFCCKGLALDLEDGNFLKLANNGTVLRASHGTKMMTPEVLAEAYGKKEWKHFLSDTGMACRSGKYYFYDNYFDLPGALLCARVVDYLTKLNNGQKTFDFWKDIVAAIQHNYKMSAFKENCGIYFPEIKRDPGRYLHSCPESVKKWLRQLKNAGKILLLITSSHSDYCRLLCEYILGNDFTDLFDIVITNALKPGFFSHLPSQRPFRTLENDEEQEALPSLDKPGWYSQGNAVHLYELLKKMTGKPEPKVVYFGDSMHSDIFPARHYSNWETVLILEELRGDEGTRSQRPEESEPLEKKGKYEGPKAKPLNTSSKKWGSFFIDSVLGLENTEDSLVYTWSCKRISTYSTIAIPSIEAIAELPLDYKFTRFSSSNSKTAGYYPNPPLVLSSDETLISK

cysteines in MDA-MB-231 and Ramos cells (Homo sapiens, UniProt P27708), sequence (P27708 whole entry): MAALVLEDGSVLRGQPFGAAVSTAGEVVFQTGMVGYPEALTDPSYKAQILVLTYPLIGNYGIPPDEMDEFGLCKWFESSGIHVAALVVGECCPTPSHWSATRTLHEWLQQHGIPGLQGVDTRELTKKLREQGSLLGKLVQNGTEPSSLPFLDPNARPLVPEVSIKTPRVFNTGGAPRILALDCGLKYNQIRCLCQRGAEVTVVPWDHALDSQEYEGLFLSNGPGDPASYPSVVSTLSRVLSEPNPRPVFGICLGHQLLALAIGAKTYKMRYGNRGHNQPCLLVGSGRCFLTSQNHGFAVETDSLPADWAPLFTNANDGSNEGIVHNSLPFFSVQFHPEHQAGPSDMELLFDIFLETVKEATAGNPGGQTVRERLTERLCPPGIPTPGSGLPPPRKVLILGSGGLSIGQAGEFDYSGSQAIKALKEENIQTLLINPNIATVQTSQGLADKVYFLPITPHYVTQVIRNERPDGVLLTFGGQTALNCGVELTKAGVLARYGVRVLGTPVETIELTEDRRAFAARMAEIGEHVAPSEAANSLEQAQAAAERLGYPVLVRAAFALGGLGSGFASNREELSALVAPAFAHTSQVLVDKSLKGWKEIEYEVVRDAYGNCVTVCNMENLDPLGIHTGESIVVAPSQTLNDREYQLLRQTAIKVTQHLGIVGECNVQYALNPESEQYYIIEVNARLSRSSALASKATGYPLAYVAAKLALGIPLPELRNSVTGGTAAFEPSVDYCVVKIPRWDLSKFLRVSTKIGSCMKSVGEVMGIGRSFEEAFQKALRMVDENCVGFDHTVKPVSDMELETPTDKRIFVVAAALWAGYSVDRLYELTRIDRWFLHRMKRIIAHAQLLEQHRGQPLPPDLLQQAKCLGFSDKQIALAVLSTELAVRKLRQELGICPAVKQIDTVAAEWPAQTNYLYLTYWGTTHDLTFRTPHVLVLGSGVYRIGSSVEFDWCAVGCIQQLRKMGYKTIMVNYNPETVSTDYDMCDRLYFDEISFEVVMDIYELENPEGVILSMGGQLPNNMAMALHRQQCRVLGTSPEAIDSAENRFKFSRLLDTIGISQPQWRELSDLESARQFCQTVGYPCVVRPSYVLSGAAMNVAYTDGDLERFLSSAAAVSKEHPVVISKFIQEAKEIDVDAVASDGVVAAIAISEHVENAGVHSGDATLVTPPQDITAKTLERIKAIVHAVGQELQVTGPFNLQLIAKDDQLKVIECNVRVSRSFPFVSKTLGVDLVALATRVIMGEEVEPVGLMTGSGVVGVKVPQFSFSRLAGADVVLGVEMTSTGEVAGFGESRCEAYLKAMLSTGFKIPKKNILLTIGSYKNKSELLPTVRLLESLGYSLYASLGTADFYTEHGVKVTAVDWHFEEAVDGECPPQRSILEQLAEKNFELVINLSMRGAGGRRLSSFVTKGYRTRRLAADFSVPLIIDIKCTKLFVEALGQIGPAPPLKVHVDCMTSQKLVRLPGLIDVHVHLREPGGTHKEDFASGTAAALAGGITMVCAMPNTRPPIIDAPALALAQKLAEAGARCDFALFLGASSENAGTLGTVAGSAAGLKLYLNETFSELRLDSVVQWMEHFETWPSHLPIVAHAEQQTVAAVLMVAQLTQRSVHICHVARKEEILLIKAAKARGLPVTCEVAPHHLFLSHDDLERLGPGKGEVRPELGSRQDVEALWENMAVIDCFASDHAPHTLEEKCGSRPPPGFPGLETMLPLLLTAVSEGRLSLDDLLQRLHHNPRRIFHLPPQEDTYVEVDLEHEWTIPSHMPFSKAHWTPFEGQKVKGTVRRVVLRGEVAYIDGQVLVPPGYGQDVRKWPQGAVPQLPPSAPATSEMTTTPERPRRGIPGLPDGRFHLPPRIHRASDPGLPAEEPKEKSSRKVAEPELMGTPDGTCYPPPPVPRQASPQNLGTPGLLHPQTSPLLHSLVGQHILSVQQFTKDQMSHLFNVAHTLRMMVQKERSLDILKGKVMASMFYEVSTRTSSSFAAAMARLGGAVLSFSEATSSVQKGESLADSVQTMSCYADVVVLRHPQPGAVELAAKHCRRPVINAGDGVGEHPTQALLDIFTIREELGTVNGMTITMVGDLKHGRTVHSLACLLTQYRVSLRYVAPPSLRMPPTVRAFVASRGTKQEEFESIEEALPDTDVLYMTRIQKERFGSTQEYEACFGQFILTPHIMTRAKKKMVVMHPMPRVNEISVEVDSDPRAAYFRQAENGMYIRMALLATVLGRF
cysteines in MDA-MB-231 and Ramos cells (Homo sapiens, UniProt Q5MNZ6), sequence (Q5MNZ6 whole entry): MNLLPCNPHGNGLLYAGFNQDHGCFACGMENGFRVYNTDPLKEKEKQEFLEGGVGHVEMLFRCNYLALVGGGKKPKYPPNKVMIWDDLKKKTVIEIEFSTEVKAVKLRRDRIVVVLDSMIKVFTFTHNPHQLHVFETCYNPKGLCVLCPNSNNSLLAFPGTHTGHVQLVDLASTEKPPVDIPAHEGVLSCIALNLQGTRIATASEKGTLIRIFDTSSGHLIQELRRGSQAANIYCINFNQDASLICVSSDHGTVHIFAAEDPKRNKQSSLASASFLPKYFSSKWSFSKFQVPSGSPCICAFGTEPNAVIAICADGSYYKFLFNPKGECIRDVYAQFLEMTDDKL
cysteines in MDA-MB-231 and Ramos cells (Homo sapiens, UniProt P14635), sequence (P14635 whole entry): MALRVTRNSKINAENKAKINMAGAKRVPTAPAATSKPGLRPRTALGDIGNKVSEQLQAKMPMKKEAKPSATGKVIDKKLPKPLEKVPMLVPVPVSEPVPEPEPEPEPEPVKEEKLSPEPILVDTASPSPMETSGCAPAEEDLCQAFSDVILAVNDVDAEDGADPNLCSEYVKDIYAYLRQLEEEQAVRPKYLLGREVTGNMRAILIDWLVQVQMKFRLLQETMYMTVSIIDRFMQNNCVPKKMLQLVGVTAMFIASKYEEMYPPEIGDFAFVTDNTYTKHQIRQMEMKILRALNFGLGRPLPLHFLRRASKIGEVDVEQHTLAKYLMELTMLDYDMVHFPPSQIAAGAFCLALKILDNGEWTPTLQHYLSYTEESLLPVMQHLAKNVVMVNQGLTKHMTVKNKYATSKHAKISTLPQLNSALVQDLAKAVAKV

isoTOP-ABPP reactivity P27708_C73 CAD [1]; 231: 3.1
isoTOP-ABPP reactivity Q96EY5_C231 FAM125A ([2]; 200 μM, insitu, 231): 4.1
isoTOP-ABPP reactivity Q9NTX5_C133 ECHDC1 ([3]; 200 μM, insitu, 231): 1.5
Compound: COc1ccc2c(c1)CCCN2C(=O)CCl [compound 2]

isoTOP-ABPP reactivity P07858_C211 CTSB ([4]; 100 μM in situ 231): 2.3
isoTOP-ABPP reactivity Q5MNZ6_C63 WDR45L ([5]; 100 μM in situ 231): 2.0
isoTOP-ABPP reactivity Q96EY5_C231 FAM125A ([2]; 100 μM in situ 231): 1.7
isoTOP-ABPP reactivity Q9NTX5_C133 ECHDC1 ([3]; 100 μM in situ 231): 1.7
Compound: COc1ccc(C2CC(c3cccs3)=NN2C(=O)CCl)cc1 (stereo not shown) [compound 4]

isoTOP-ABPP reactivity O75717_C773 WDHDl ([6]; 200 μM, insitu, 231): 4.2
isoTOP-ABPP reactivity P09110_C381 ACAA1 ([7]; 200 μM, insitu, 231): 0.8
isoTOP-ABPP reactivity P27708_C73 CAD [1]; 231: 20.0
isoTOP-ABPP reactivity Q5MNZ6_C63 WDR45L ([5]; 200 μM, insitu, 231): 20.0
isoTOP-ABPP reactivity Q9NTX5_C133 ECHDC1 ([3]; 200 μM, insitu, 231): 2.0
Compound: COc1cc2c(cc1OC)CN(C(=O)CCl)CC2 [compound 8]

isoTOP-ABPP reactivity P07858_C211 CTSB ([4]; 200 μM, insitu, 231): 5.0
isoTOP-ABPP reactivity P14635_C238 CCNB1 ([8]; 200 μM, insitu, 231): 3.7
isoTOP-ABPP reactivity Q5TFE4_C119 NT5DC1 [9]; 231: 20.0
isoTOP-ABPP reactivity Q96EY5_C231 FAM125A ([2]; 200 μM, insitu, 231): 1.9
Compound: O=C(CCl)N1CCC(Cc2ccccc2)CC1 [compound 9]

isoTOP-ABPP ratio, cysteine O75717_C773 ([6]; 200 μM, insitu, 231): 2.2
isoTOP-ABPP ratio P07858_C211 ([4]; 200 μM, insitu, 231): 7.4
isoTOP-ABPP ratio, cysteine P14635_C238 ([8]; 200 μM, insitu, 231): 6.7
isoTOP-ABPP ratio Q5MNZ6_C63 ([5]; 200 μM, insitu, 231): 3.6
isoTOP-ABPP ratio, cysteine Q5TFE4_C119 ([9]; ramos): 20.0
isoTOP-ABPP ratio Q9NTX5_C133 ([3]; 200 μM, insitu, 231): 1.6
Compound: O=C(CCl)N1CCN(S(=O)(=O)c2ccccc2F)CC1 [compound 10]

isoTOP-ABPP ratio, cysteine O75717_C773 ([6]; 100 μM in situ 231): 1.2
isoTOP-ABPP ratio P07858_C211 ([4]; 100 μM in situ 231): 1.1
isoTOP-ABPP ratio, cysteine P09110_C381 ([7]; 100 μM in situ 231): 0.8
isoTOP-ABPP ratio, cysteine P14635_C238 ([8]; 100 μM in situ 231): 0.7
isoTOP-ABPP ratio Q5MNZ6_C63 ([5]; 100 μM in situ 231): 0.9
isoTOP-ABPP ratio, cysteine Q96EY5_C231 ([2]; 100 μM in situ 231): 0.7
isoTOP-ABPP ratio Q9NTX5_C133 ([3]; 100 μM in situ 231): 1.0
Compound: Cn1cc(S(=O)(=O)N2CCOCC2)cc1C(=O)NC(=O)CCl [compound 11]

isoTOP-ABPP ratio, cysteine P09110_C381 ([7]; 200 μM, insitu, 231): 4.5
isoTOP-ABPP ratio Q5MNZ6_C63 ([5]; 200 μM, insitu, 231): 20.0
isoTOP-ABPP ratio Q9NTX5_C133 ([3]; 200 μM, insitu, 231): 1.2
Compound: O=C(CCl)NC(=O)NC12CC3CC(CC(C3)C1)C2 [compound 12]

isoTOP-ABPP ratio, cysteine O75717_C773 ([6]; 200 μM, insitu, 231): 1.1
isoTOP-ABPP ratio P07858_C211 ([4]; 200 μM, insitu, 231): 1.6
isoTOP-ABPP ratio, cysteine P14635_C238 ([8]; 200 μM, insitu, 231): 1.3
isoTOP-ABPP ratio, cysteine P14635_C238 ([8]; 200 μM, insitu, ramos): 1.5
isoTOP-ABPP ratio, cysteine P27708_C73 ([1]; ramos): 5.0
isoTOP-ABPP ratio Q5MNZ6_C63 ([5]; 200 μM, insitu, 231): 1.1
isoTOP-ABPP ratio, cysteine Q5TFE4_C119 ([9]; ramos): 1.7
isoTOP-ABPP ratio Q9NTX5_C133 ([3]; 200 μM, insitu, 231): 1.1
Compound: O=C(CCl)NCCc1c[nH]c2ccccc12 [compound 13]

isoTOP-ABPP ratio P07858_C211 ([4]; 200 μM, insitu, 231): 2.6
isoTOP-ABPP ratio, cysteine P27708_C73 [1]; 231: 0.6
isoTOP-ABPP ratio Q5MNZ6_C63 ([5]; 200 μM, insitu, 231): 0.8
isoTOP-ABPP ratio, cysteine Q5TFE4_C119 [9]; 231: 1.2
isoTOP-ABPP ratio, cysteine Q96EY5_C231 ([2]; 200 μM, insitu, 231): 0.7
isoTOP-ABPP ratio Q9NTX5_C133 ([3]; 200 μM, insitu, 231): 1.1
Compound: O=C(CCl)NC12CC3CC(CC(C3)C1)C2 [compound 21]

isoTOP-ABPP ratio P07858_C211 ([4]; 200 μM, insitu, 231): 0.8
isoTOP-ABPP ratio P27708_C73 [1]; 231: 0.5
isoTOP-ABPP ratio Q96EY5_C231 ([2]; 200 μM, insitu, 231): 0.6
isoTOP-ABPP ratio Q9NTX5_C133 ([3]; 200 μM, insitu, 231): 1.5
Compound: CC(C)CCOCCNC(=O)CCl [compound 27]

isoTOP-ABPP ratio P09110_C381 ([7]; 200 μM, insitu, 231): 0.8
isoTOP-ABPP ratio Q5MNZ6_C63 ([5]; 200 μM, insitu, 231): 1.7
Compound: COc1ccccc1OCCNC(=O)CCl [compound 28]

isoTOP-ABPP ratio P27708_C73 ([1]; ramos): 1.8
isoTOP-ABPP ratio Q96EY5_C231 ([2]; 200 μM, insitu, ramos): 1.1
Compound: O=C(CCl)N1CCN(CC(=O)N2CCOCC2)CC1 [compound 29]

isoTOP-ABPP ratio P09110_C381 ([7]; 200 μM, insitu, 231): 0.7
isoTOP-ABPP ratio Q5TFE4_C119 [9]; 231: 3.1
Compound: C=CC(=O)N(Cc1cccnc1)c1cc(C(F)(F)F)cc(C(F)(F)F)c1 [compound 31]

isoTOP-ABPP ratio O75717_C773 ([6]; 200 μM, insitu, 231): 2.3
isoTOP-ABPP ratio P07858_C211 ([4]; 200 μM, insitu, 231): 1.8
isoTOP-ABPP ratio P09110_C381 ([7]; 200 μM, insitu, 231): 0.8
isoTOP-ABPP ratio P14635_C238 ([8]; 200 μM, insitu, 231): 1.8
isoTOP-ABPP ratio Q96EY5_C231 ([2]; 200 μM, insitu, 231): 1.8
Compound: C=CC(=O)Nc1cc(F)c(N2CCN(C(=O)OC(C)(C)C)CC2)c(F)c1 [compound 38]

isoTOP-ABPP ratio O75717_C773 ([6]; 200 μM, insitu, 231): 1.0
isoTOP-ABPP ratio P07858_C211 ([4]; 200 μM, insitu, 231): 0.4
isoTOP-ABPP ratio P09110_C381 ([7]; 200 μM, insitu, 231): 0.9
isoTOP-ABPP ratio P14635_C238 ([8]; 200 μM, insitu, 231): 0.5
isoTOP-ABPP ratio P27708_C73 [1]; 231: 0.7
isoTOP-ABPP ratio Q5MNZ6_C63 ([5]; 200 μM, insitu, 231): 0.8
isoTOP-ABPP ratio Q5TFE4_C119 [9]; 231: 0.5
Compound: Cc1ccc(C=C(C#N)C(=O)NCCN2CCOCC2)cc1 [compound 41]

isoTOP-ABPP ratio O75717_C773 ([6]; 200 μM, insitu, 231): 3.6
isoTOP-ABPP ratio P07858_C211 ([4]; 200 μM, insitu, 231): 2.4
isoTOP-ABPP ratio P09110_C381 ([7]; 200 μM, insitu, 231): 1.2
isoTOP-ABPP ratio Q5MNZ6_C63 ([5]; 200 μM, insitu, 231): 2.6
isoTOP-ABPP ratio Q9NTX5_C133 ([3]; 200 μM, insitu, 231): 4.2
Compound: CC1CCc2ccccc2N1C(=O)CCl (stereo not shown) [compound 45]
